Assay [1] deals with HIV-1 protease. The note with it: experimental binding free energy; ligand named by PDB code of its complex; cited from earlier work.
The subject of assay [2] is human factor Xa. As to conditions: experimental binding free energy; ligand named by PDB code of its complex; cited from earlier work.
For assay [3], the system named is BRD4. Also noted: method as in Aldeghi et al. (18). As to conditions: experimental binding free energy; ligand named by PDB code of its complex; ref Aldeghi et al. (18); cited from earlier work.
For assay [4], the target named is T1, SARS-CoV-2 M^pro (Severe acute respiratory syndrome coronavirus 2, UniProt P0DTD1). The note with it: for UEMM-GBSA: unsigned error |ΔGMM-GBSA − ΔGexp|; for UEMM-PBSA: unsigned error |ΔGMM-PBSA − ΔGexp|.
Assay [5] deals with T1, SARS-CoV-2 M^pro.
The target of assay [6] is T1, SARS-CoV-2 M^pro. The assay can be described thus: biochemical.
Assay [7] has as its system SARS-CoV-2. As to conditions: molecular targets not reported; cited from earlier work.
[8] abbreviates: calculated from corresponding Ki values.
Where [9] appears, read: converted from IC50 based on the assumption of the competitive inhibition without covalent binding, read-out: Ki.
The mark [10] stands for this setting: substrate concentration 20 µM, 500 nM enzyme, ∼50 values estimated from single-concentration assay, read-out: IC50.

Broadly, the IC50 is the concentration needed to halve the response being measured.

Where a name gives a salt, the structure may show the parent alone. Read-outs that look alike come from different tables or passages of the source.

Consider `O=S1(=O)N(Cc2ccccc2)[C@H](COc2ccccc2)[C@H](O)[C@@H](O)[C@@H](COc2ccccc2)N1Cc1ccccc1` [1AJV], for which the “∆Gexp” value in assay [1] is listed as -10.5 kcal/mol.
For the compound `O=C(NCc1ccccc1)[C@H](OCc1ccccc1)[C@H](O)[C@@H](O)[C@@H](OCc1ccccc1)C(=O)N[C@H]1c2ccccc2C[C@H]1O` [1D4H], the “∆Gexp” value in assay [1] is listed as -13.6 kcal/mol.
On to `O=C(N[C@H]1c2ccccc2C[C@H]1O)[C@@H](C[C@@H](O)[C@@H](OCc1ccccc1)C(=O)N[C@H]1c2ccccc2C[C@H]1O)OCc1ccccc1` [1D4I], for which, in assay [1], the “∆Gexp” value is listed as -12.1 kcal/mol.
Turning to `O=C(N[C@H]1c2ccccc2C[C@H]1O)[C@H](OCc1ccccc1)[C@H](O)[C@@H](O)[C@@H](OCc1ccccc1)C(=O)N[C@H]1c2ccccc2C[C@H]1O` [1EBY], the “∆Gexp” value in assay [1] is given as -13.2 kcal/mol.
For `CNC(=O)[C@@H](NC(=O)[C@H](OCc1ccccc1)[C@H](O)[C@@H](O)[C@@H](OCc1ccccc1)C(=O)N[C@H]1c2ccccc2C[C@H]1O)C(C)C` [1EBZ], in assay [1], the “∆Gexp” value was -12.8 kcal/mol.
For the compound `CN1CCN=C1c1cccc(Oc2nc(Oc3cc(C(=N)N)ccc3O)c(F)c(N(C)CC(=O)O)c2F)c1` [1FJS], the “∆Gexp” value in assay [2] is -13.6 kcal/mol.
Regarding `COc1cc(Cl)cc(C(=O)Nc2ccc(Cl)cn2)c1NC(=O)c1scc(CN(C)C2=NCCO2)c1Cl` [1MQ6], in assay [2], the “∆Gexp” value is -15.2 kcal/mol.
For `CC(C(=O)N1CCOCC1)N1CCC(NS(=O)(=O)c2cc3ccc(Cl)cc3s2)C1=O` (centres unmarked) [2J34], the “∆Gexp” value in assay [2] was -10.7 kcal/mol.
Turning to `COc1ccc(-n2nc(C(N)=O)c3c2C(=O)N(c2ccc(N4CCCCC4=O)cc2)CC3)cc1` [2P16], in assay [2], the “∆Gexp” value was -13.8 kcal/mol.
On to `CC(=O)N[C@@H](C)C(=O)N[C@@H](Cc1ccccc1)[C@H](O)CN(Cc1cccs1)S(=O)(=O)c1cc(F)c(F)cc1F` [2QHY], for which the “∆Gexp” value in assay [1] was -10.2 kcal/mol.
With `O=C(Cn1cnc(NC(=O)c2ccc(Cl)s2)n1)Nc1ccc(-n2ccccc2=O)cc1F` [2VVV], in assay [2], the “∆Gexp” value is given as -11.2 kcal/mol.
`C=C(C)CNC(=O)C1N(C(=O)C(O)C(Cc2ccccc2)NC(=O)COc2c(C)cc(N)cc2C)CSC1(C)C` (centres unmarked) [3A2O]: the “∆Gexp” value in assay [1] is listed as -12.4 kcal/mol.
Take `Cc1sc2c(c1C)C(c1ccc(Cl)cc1)=N[C@@H](CC(=O)OC(C)(C)C)c1nnc(C)n1-2` [3MXF]: in assay [3], the “∆Gexp” value is given as -9.6 kcal/mol.
Take `CCOc1cc(-c2c(C)noc2C)cc(C(C)O)c1` (centres unmarked) [3SVG]: in assay [3], the “∆Gexp” value is reported as -7.3 kcal/mol.
Turning to `Cc1nnc2n1-c1ccc(Cl)cc1C(c1ccccc1)=NC2` [3U5J], the “∆Gexp” value in assay [3] is -7.4 kcal/mol.
With `Cc1nnc2n1-c1ccc(Cl)cc1C(c1ccccc1)=NN2C` [3U5L], the “∆Gexp” value in assay [3] is listed as -8.2 kcal/mol.
Turning to `CN1Cc2cc(Br)ccc2NC1=O` [4HBV], the “∆Gexp” value in assay [3] is recorded as -6.3 kcal/mol.
`Cc1noc(C)c1-c1cc(O)cc(C(O)c2ccccc2)c1` (centres unmarked) [4J0R]: the “∆Gexp” value in assay [3] is listed as -8.8 kcal/mol.
With `COc1cc(OC)c2c(=O)[nH]c(-c3cc(C)c(O)c(C)c3)nc2c1` [4MR3], the “∆Gexp” value in assay [3] is -9.0 kcal/mol.
Consider `COc1cc(OC)c2c(=O)[nH]c(-c3cc(C)c(OCCO)c(C)c3)nc2c1` [4MR4], for which, in assay [3], the “∆Gexp” value is given as -7.8 kcal/mol.
`CC(C)CN(CC(O)C(Cc1ccccc1)NC(=O)OC1COC2OCC(F)(F)C12)S(=O)(=O)c1ccc(N)cc1` (centres unmarked) [4U8W]: in assay [1], the “∆Gexp” value is -15.3 kcal/mol.
With `Cc1coc(CN(C)C(=O)c2cccc(C(=O)N[C@@H](Cc3ccccc3)[C@H](O)CN(CC(C)C)S(=O)(=O)c3ccc(CO)cc3)c2)n1` [5UPZ], in assay [1], the “∆Gexp” value is on record as -12.5 kcal/mol.
In assay [4], `CCOc1nc2cccc(C(=O)OC(C)OC(=O)OC3CCCCC3)c2n1Cc1ccc(-c2ccccc2-c2nnn[nH]2)cc1` (centres unmarked) [Candesartan cilexetil, candesartan cilexetil] displayed a UEMM-GBSA of 29.1 kcal/mol and a UEMM-PBSA of 26.9 kcal/mol. Moreover, the UEFEP-ABFE in assay [5] came out at 0.6 kcal/mol. Moreover, the ΔGexp in assay [6] (setting [8]) is -9.2 kcal/mol. Also, the Ki in assay [6] (setting [9]) is 0.18 ± 0.02 µM. Moreover, in assay [6] (setting [10]), the IC50 is 2.8 ± 0.3 µM.
As for `CCOc1nc2cccc(C(=O)O)c2n1Cc1ccc(-c2ccccc2-c2nnn[nH]2)cc1` [Candesartan, candesartan], in assay [6], the Ki stood at 0.62 µM.
On to `CN/C(=N/CCSCc1nc[nH]c1C)NC#N` [Cimetidine], for which, in assay [4], the UEMM-GBSA is given as 20.3 kcal/mol and the UEMM-PBSA was found to be 18.7 kcal/mol. Further, the UEFEP-ABFE in assay [5] came out at 1.4 kcal/mol. Also, in assay [6], the IC50 was approximately 50 µM, the Ki is approximately 3.27 µM and the ΔGexp is given as -7.5 kcal/mol.
For the compound `CCN(CC)C(=S)SSC(=S)N(CC)CC` [Disulfiram, disulfiram], the UEFEP-ABFE in assay [5] is reported as 2.2 kcal/mol; in assay [5] (listed as disulfiram) it was “about 2.2 kcal/mol”. Also, the ΔGexp in assay [6] (setting [8]) was -8.8 kcal/mol.
For `CC(C)(C)NC(=O)[C@@H]1CN(Cc2cccnc2)CCN1C[C@@H](O)C[C@@H](Cc1ccccc1)C(=O)N[C@H]1c2ccccc2C[C@H]1O` [Indinavir], the “activity in vitro against SARS-CoV-2” value in assay [7] is “active in vitro”.
Regarding `CC(C)Nc1nc2cc(Cl)c(Cl)cc2n1[C@H]1O[C@@H](CO)[C@H](O)[C@@H]1O` [Maribavir], in assay [4], the UEMM-GBSA is reported as 25.7 kcal/mol and the UEMM-PBSA is listed as 19.5 kcal/mol. This compound registered a UEFEP-ABFE in assay [5] (unsigned error |ΔGFEP-ABFE − ΔGexp|) of 2.2 kcal/mol. Also, the UEFEP-ABFE result in assay [5] (unsigned error |ΔGFEP-ABFE − ΔGexp|, listed as maribavir) is “about 2.2 kcal/mol”.
Regarding `COc1ccc2[nH]c([S+]([O-])Cc3ncc(C)c(OC)c3C)nc2c1` (centres unmarked) [Omeprazole], in assay [4], the UEMM-GBSA was 16.4 kcal/mol and the UEMM-PBSA is listed as 14.3 kcal/mol. Besides, the UEFEP-ABFE in assay [5] stood at 1.6 kcal/mol. Also, in assay [6], half-maximal inhibition (IC50) required 21 ± 1 µM and the Ki came out at 1.37 ± 0.06 µM. The ΔGexp in assay [6] (setting [8]) is -8.0 kcal/mol.
In assay [4], `CN(C)[C@@H]1C(O)=C(C(N)=O)C(=O)[C@@]2(O)C(O)=C3C(=O)c4c(O)cccc4[C@@](C)(O)[C@H]3[C@H](O)[C@@H]12` [Oxytetracycline] registered a UEMM-GBSA of 6.4 kcal/mol and a UEMM-PBSA of 1.8 kcal/mol. The UEFEP-ABFE in assay [5] is listed as 0.6 kcal/mol. Besides, in assay [6] (setting [8]), the ΔGexp is recorded as -8.2 kcal/mol. Moreover, the Ki in assay [6] (setting [9]) was determined as 0.99 ± 0.06 µM. In addition, the IC50 in assay [6] (setting [10]) was 15.2 ± 0.9 µM.
In assay [4], `CC(=O)OCC(=O)NCCCOc1cccc(CN2CCCCC2)c1` [Roxatidine acetate hydrochloride] yielded a UEMM-GBSA of 22.5 kcal/mol and a UEMM-PBSA of 21.2 kcal/mol. Moreover, the UEFEP-ABFE in assay [5] was found to be 0.8 kcal/mol. In assay [6] (setting [8]), the ΔGexp is recorded as -8.0 kcal/mol. The Ki in assay [6] (setting [9]) was determined as 1.33 ± 0.02 µM. In assay [6] (setting [10]), the IC50 was 20.3 ± 0.4 µM.
In assay [4], `CC(=O)NS(=O)(=O)c1ccc(N)cc1` [Sulfacetamide] displayed a UEMM-GBSA of 6.4 kcal/mol and a UEMM-PBSA of 7.3 kcal/mol. In addition, the UEFEP-ABFE in assay [5] was 0.5 kcal/mol. Besides, in assay [6], the IC50 is approximately 50 µM and the Ki is approximately 3.27 µM. The ΔGexp in assay [6] (setting [8]) was -7.5 kcal/mol.
As for `CC(C)[C@H](N)C(=O)OCCOCn1cnc2c(=O)[nH]c(N)nc21` [Valacyclovir hydrochloride], in assay [4], the UEMM-GBSA came to 10.2 kcal/mol and the UEMM-PBSA came to 12.7 kcal/mol. Besides, in assay [5], the UEFEP-ABFE worked out at 1.9 kcal/mol. Moreover, the ΔGexp in assay [6] (setting [8]) was -8.1 kcal/mol. Moreover, the Ki in assay [6] (setting [9]) was 1.09 ± 0.06 µM. Besides, the IC50 in assay [6] (setting [10]) was 16.7 ± 0.9 µM.
Consider `CC(C)[C@H](N)C(=O)OCC(CO)OCn1cnc2c(=O)nc(N)[nH]c21` (some centres unmarked) [Valganciclovir Hydrochloride], for which the Ki in assay [6] (setting [9]) stood at 1.09 ± 0.06 µM.

The record behind these values is article PMC7959488, “Identify potent SARS-CoV-2 main protease inhibitors via accelerated free energy perturbation-based virtual screening of existing drugs” (Proceedings of the National Academy of Sciences of the …, 2020).
